Reference: patent US7915281B2, “Isoxazole, dihydroisoxazole, and oxadiazole substituted imidazo ring compounds and method” (3M Innovative Properties Company, priority 2004, dated 2011)

melting point [°C]	Compound
255 to 256	CCc1nc2c(N)nc(C)c(C)c2n1Cc1cc(-c2ccc(F)cc2)no1 [Example 21, 2-Ethyl-1-{[3-(4-fluorophenyl)isoxazol-5-yl]methyl}-6,7-dimethyl-1H-imidazo[4,5-c]pyridin-4-amine]
278 to 279	Cc1nc(N)c2nc(C)n(Cc3cc(-c4ccc(F)cc4)no3)c2c1C [Example 22, 1-{[3-(4-Fluorophenyl)isoxazol-5-yl]methyl}-2,6,7-trimethyl-1H-imidazo[4,5-c]pyridin-4-amine]
227 to 229	CCCc1nc2c(N)nc(C)c(C)c2n1Cc1cc(-c2ccc(F)cc2)no1 [Example 23, 1-{[3-(4-Fluorophenyl)isoxazol-5-yl]methyl}-6,7-dimethyl-2-propyl-1H-imidazo[4,5-c]pyridin-4-amine]
219 to 220	Fc1ccc(-c2cc(Cn3cnc4c(Cl)nc5ccccc5c43)on2)cc1 [Example 24, 4-Chloro-1-{[3-(4-fluorophenyl)isoxazol-5-yl]methyl}-1H-imidazo[4,5-c]quinoline]
259 to 260	Nc1nc2ccccc2c2c1ncn2Cc1cc(-c2ccc(F)cc2)no1 [Example 25, 1-{[3-(4-Fluorophenyl)isoxazol-5-yl]methyl}-1H-imidazo[4,5-c]quinolin-4-amine]
232 to 233	CCc1nc2c(N)nc3ccccc3c2n1Cc1cc(-c2ccc(F)cc2)no1 [Example 26, 2-Ethyl-1-{[3-(4-fluorophenyl)isoxazol-5-yl]methyl}-1H-imidazo[4,5-c]quinolin-4-amine]
226 to 227	CCCc1nc2c(N)nc3ccccc3c2n1Cc1cc(-c2ccc(F)cc2)no1 [Example 27, 1-{[3-(4-Fluorophenyl)isoxazol-5-yl]methyl}-2-propyl-1H-imidazo[4,5-c]quinolin-4-amine]
294 to 296	Cc1nc2c(N)nc3ccccc3c2n1Cc1cc(-c2ccc(F)cc2)no1 [Example 28, 1-{[3-(4-Fluorophenyl)isoxazol-5-yl]methyl}-2-methyl-1H-imidazo[4,5-c]quinolin-4-amine]
189 to 190	CCOCc1nc2c(Cl)nc3ccccc3c2n1Cc1cc(-c2ccc(F)cc2)no1 [Example 29, 4-Chloro-2-(ethoxymethyl)-1-{[3-(4-fluorophenyl)isoxazol-5-yl]methyl}-1H-imidazo[4,5-c]quinoline]
203 to 204	CCOCc1nc2c(N)nc3ccccc3c2n1Cc1cc(-c2ccc(F)cc2)no1 [Example 30, 2-(Ethoxymethyl)-1-{[3-(4-fluorophenyl)isoxazol-5-yl]methyl}-1H-imidazo[4,5-c]quinolin-4-amine]
262 to 263	Nc1nc2ccccc2c2c1nc(CO)n2Cc1cc(-c2ccc(F)cc2)no1 [Example 31, (4-Amino-1-{[3-(4-fluorophenyl)isoxazol-5-yl]methyl}-1H-imidazo[4,5-c]quinolin-2-yl)methanol]
192 to 193	Nc1nc2ccccc2c2c1nc(CF)n2Cc1cc(-c2ccc(F)cc2)no1 [Example 32, 2-(Fluoromethyl)-1-{[3-(4-fluorophenyl)isoxazol-5-yl]methyl}-1H-imidazo[4,5-c]quinolin-4-amine]
180 to 181	CCOCc1nc2c(N)nc3ccccc3c2n1CCc1cc(-c2ccc(F)cc2)no1 [Example 33, 2-(Ethoxymethyl)-1-{2-[3-(4-fluorophenyl)isoxazol-5-yl]ethyl}-1H-imidazo[4,5-c]quinolin-4-amine]
208 to 209	CCCc1nc2c(N)nc3ccccc3c2n1CCc1cc(-c2ccc(F)cc2)no1 [Example 34, 1-{2-[3-(4-Fluorophenyl)isoxazol-5-yl]ethyl}-2-propyl-1H-imidazo[4,5-c]quinolin-4-amine]
201 to 203	CCCCc1cc(Cn2cnc3c(N)nc4ccccc4c32)no1 [Example 35, 1-[(5-Butylisoxazol-3-yl)methyl]-1H-imidazo[4,5-c]quinolin-4-amine]
206 to 207	CCCc1nc2c(N)nc3ccccc3c2n1Cc1cc(-c2cccnc2)on1 [Example 36, 2-Propyl-1-[(5-pyridin-3-ylisoxazol-3-yl)methyl]-1H-imidazo[4,5-c]quinolin-4-amine]
221 to 223	CCOCc1nc2c(N)nc3ccccc3c2n1Cc1cc(-c2ccccc2)on1 [Example 37, 2-(Ethoxymethyl)-1-[(5-phenylisoxazol-3-yl)methyl]-1H-imidazo[4,5-c]quinolin-4-amine]

More lines, now with the values behind:

Compound	melting point [°C]
CCOCc1nc2c(N)nc3ccccc3c2n1CC1CC(C)=NO1 (stereo not shown) [Example 1, 2-(Ethoxymethyl)-1-[(3-methyl-4,5-dihydroisoxazol-5-yl)methyl]-1H-imidazo[4,5-c]quinolin-4-amine]	204 to 205
CCOCc1nc2c(N)nc3ccccc3c2n1CC1CC(c2ccccc2)=NO1 (stereo not shown) [Example 2, 2-(Ethoxymethyl)-1-[(3-phenyl-4,5-dihydroisoxazol-5-yl)methyl]-1H-imidazo[4,5-c]quinolin-4-amine]	235 to 237
CCOCc1nc2c(N)nc3ccccc3c2n1Cc1cc(-c2ccccc2)no1 [Example 3, 2-(Ethoxymethyl)-1-[(3-phenylisoxazol-5-yl)methyl]-1H-imidazo[4,5-c]quinolin-4-amine]	215 to 216
CCOCc1nc2c(N)nc3ccccc3c2n1Cc1cc(C)no1 [Example 4, 2-(Ethoxymethyl)-1-[(3-methylisoxazol-5-yl)methyl]-1H-imidazo[4,5-c]quinolin-4-amine]	178 to 180
CCOCc1nc2c(N)nc3ccccc3c2n1Cc1cc(-c2cccnc2)no1 [Example 5, 2-(Ethoxymethyl)-1-[(3-pyridin-3-ylisoxazol-5-yl)methyl]-1H-imidazo[4,5-c]quinolin-4-amine]	240 to 242
CCOCc1nc2c(N)nc3ccccc3c2n1CCCc1cc(-c2cccnc2)no1 [Example 6, 2-(Ethoxymethyl)-1-[3-(3-pyridin-3-ylisoxazol-5-yl)propyl]-1H-imidazo[4,5-c]quinolin-4-amine]	199 to 200
CCOCc1nc2c(N)nc3ccccc3c2n1CCCc1cc(-c2ccccc2)no1 [Example 7, 2-(Ethoxymethyl)-1-[3-(3-phenylisoxazol-5-yl)propyl]-1H-imidazo[4,5-c]quinolin-4-amine]	171 to 172
CCOCc1nc2c(N)nc3ccccc3c2n1CCCc1cc(C)no1 [Example 8, 2-(Ethoxymethyl)-1-[3-(3-methylisoxazol-5-yl)propyl]-1H-imidazo[4,5-c]quinolin-4-amine]	163 to 164
CCOCc1nc2c(N)nc(C)c(C)c2n1Cc1cc(-c2cccnc2)no1 [Example 9, 2-(Ethoxymethyl)-6,7-dimethyl-1-[(3-pyridin-3-ylisoxazol-5-yl)methyl]-1H-imidazo[4,5-c]pyridin-4-amine]	189 to 191
CCOCc1nc2c(N)nc3ccccc3c2n1CCN1C(C)=NOC1(C)C [Example 10, 2-Ethoxymethyl-1-[2-(3,5,5-trimethyl-1,2,4-oxadiazol-4(5H)-yl)ethyl]-1H-imidazo[4,5-c]quinolin-4-amine]	204 to 205
Nc1nc2cccnc2c2c1ncn2Cc1cc(-c2ccc(F)cc2)no1 [Example 11, 1-{[3-(4-Fluorophenyl)isoxazol-5-yl]methyl}-1H-imidazo[4,5-c][1,5]naphthyridin-4-amine]	265 to 266
CCOCc1nc2c(N)nc3cccnc3c2n1Cc1cc(-c2ccc(F)cc2)no1 [Example 12, 2-(Ethoxymethyl)-1-{[3-(4-fluorophenyl)isoxazol-5-yl]methyl}-1H-imidazo[4,5-c][1,5]naphthyridin-4-amine]	190 to 191
Cc1nc2c(N)nc3cccnc3c2n1Cc1cc(-c2ccc(F)cc2)no1 [Example 13, 1-{[3-(4-Fluorophenyl)isoxazol-5-yl]methyl}-2-methyl-1H-imidazo[4,5-c][1,5]naphthyridin-4-amine]	239 to 240
CCCc1nc2c(N)nc3cccnc3c2n1Cc1cc(-c2ccc(F)cc2)no1 [Example 14, 1-{[3-(4-Fluorophenyl)isoxazol-5-yl]methyl}-2-propyl-1H-imidazo[4,5-c][1,5]naphthyridin-4-amine]	238 to 239
Nc1nc2cccnc2c2c1nc(CO)n2Cc1cc(-c2ccc(F)cc2)no1 [Example 15, (4-Amino-1-{[3-(4-fluorophenyl)isoxazol-5-yl]methyl}-1H-imidazo[4,5-c][1,5]naphthyridin-2-yl)methanol]	247 to 248
CCOCc1nc2c(N)nc3ccccc3c2n1CCN1C(C)=NOC12CCCC2 [Example 16, 2-(Ethoxymethyl)-1-[2-(3-methyl-1-oxa-2,4-diazaspiro[4,4]non-2-en-4-yl)ethyl]-1H-imidazo[4,5-c]quinolin-4-amine]	211 to 213
Nc1nc2c(c3c1ncn3Cc1cc(-c3ccc(F)cc3)no1)NCCC2 [Example 17, 1-{[3-(4-Fluorophenyl)isoxazol-5-yl]methyl}-6,7,8,9-tetrahydro-1H-imidazo[4,5-c][1,5]naphthyridin-4-amine]	227 to 228
Cc1nc(N)c2ncn(Cc3cc(-c4ccc(F)cc4)no3)c2c1C [Example 18, 1-{[3-(4-Fluorophenyl)isoxazol-5-yl]methyl}-6,7-dimethyl-1H-imidazo[4,5-c]pyridin-4-amine]	244 to 246
CCOCc1nc2c(N)nc(C)c(C)c2n1Cc1cc(-c2ccc(F)cc2)no1 [Example 19, 2-(Ethoxymethyl)-1-{[3-(4-fluorophenyl)isoxazol-5-yl]methyl}-6,7-dimethyl-1H-imidazo[4,5-c]pyridin-4-amine]	246 to 247
Cc1nc(N)c2nc(CO)n(Cc3cc(-c4ccc(F)cc4)no3)c2c1C [Example 20, (4-Amino-1-{[3-(4-fluorophenyl)isoxazol-5-yl]methyl}-6,7-dimethyl-1H-imidazo[4,5-c]pyridin-2-yl)methanol]	164 to 165
